Assay results reported in patent publication US4757012A, “Ascorbic acid intermediates and process enzymes” (Genentech, Inc., priority 1984, dated 1988).

Target: T1, 2,5-DKG reductase (Corynebacterium sp., UniProt P06632)
T1 construct: made in house; host or cells: Corynebacterium sp; ATCC 31090 (natural producer, native enzyme purified from cell paste, not recombinant)
Assay: 2,5-DKG reductase kinetic / substrate specificity assay with purified enzyme
Type: biochemical, Corynebacterium sp. ATCC 31090
Conditions: for Activity of the enzyme with the substance as substrate or cofactor: substrate specificity and cofactor requirements
From the text: The following assay conditions were used to determine kinetic parameters: […]

T1 sequence (P06632 whole entry): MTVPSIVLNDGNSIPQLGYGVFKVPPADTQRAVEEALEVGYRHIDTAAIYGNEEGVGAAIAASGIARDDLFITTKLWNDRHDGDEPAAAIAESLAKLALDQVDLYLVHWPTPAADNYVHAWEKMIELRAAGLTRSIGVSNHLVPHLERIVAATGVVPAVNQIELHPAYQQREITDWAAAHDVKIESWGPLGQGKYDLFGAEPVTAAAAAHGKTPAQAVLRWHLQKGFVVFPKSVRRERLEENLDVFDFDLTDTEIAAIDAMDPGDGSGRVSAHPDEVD

SMILES	Alteration of enzyme activity in the presence of the substance	Activity of the enzyme with the substance as substrate or cofactor
Nc1ncnc2c1ncn2[C@@H]1O[C@H](COP(=O)(O)OP(=O)(O)O)[C@@H](O)[C@H]1O [ADP]	No alteration of activity	–
Nc1ncnc2c1ncn2[C@@H]1O[C@H](COP(=O)(O)OP(=O)(O)OP(=O)(O)O)[C@@H](O)[C@H]1O [ATP]	No alteration of activity	–
[Mg+2] [Mg^++]	No alteration of activity	–
O=C(O)CN(CCN(CC(=O)O)CC(=O)O)CC(=O)O [EDTA]	No alteration of activity	–
O=C(O)[C@H](O)[C@@H](O)[C@H](O)[C@H](O)CO [D-gluconic acid]	–	No activity
N[C@@H](CS)C(=O)O [cysteine]	No alteration of activity	–
[Mn+2] [MN^++]	No alteration of activity	–
O=C(O)C(=O)[C@@H](O)[C@H](O)[C@H](O)CO [2-KDG, 2-keto-D-gluconic acid]	–	No activity
[Zn+2] [Zn^++]	No alteration of activity	–
O=C(CO)[C@@H](O)[C@H](O)[C@@H](O)C(=O)O [5-KDG, 5-keto-D-gluconic acid]	–	No activity
O=C(O)C(=O)[C@@H](O)[C@H](O)[C@@H](O)CO [2-KLG, 2-keto-L-gulonic acid]	–	No activity
[Ca+2] [Ca^++]	No alteration of activity	–
NC(=O)C1=CN([C@@H]2O[C@H](COP(=O)(O)OP(=O)(O)OC[C@H]3O[C@@H](n4cnc5c(N)ncnc54)[C@H](O)[C@@H]3O)[C@@H](O)[C@H]2O)C=CC1 [NADH]	–	No activity
